Measurements: US7279548B2, “Identification and isolation of novel polypeptides having WW domains and methods of using same” (Cytogen Corporation, priority 1996, dated 2007)

Columns and labels:
[1] = test system: twelve individual novel WW domains of WWP1, WWP2, WWP3 and WWP4; experiment: ELISA based cross affinity mapping, whole panel of novel WW domains; assay type: binding, human; conditions: biotinylated peptide-streptavidin/alkaline phosphatase complex, GST fusion proteins
Experimental: (§1) The 16 day mouse embryo cDNA expression library was diluted 1:1000 in SM solution (100 mM NaCl, 8 mM MgSOv4, 50 mM Tris HCl pH 7.5, 0.01% gelatin). To a sterile test tube, 2 μl of diluted mouse embryo library, 100 μl of 10 mM CaCl2, 100 μl of 10 mM MgCl2 and 100 μl of BL21(DE3)pLysE bacterial cells (grown overnight) were added and incubated for 30 minutes at 37° C. The contents of the tube were mixed with 3 ml of 0.6% top agarose, containing […] chloramphenicol, and poured onto a 2xYT plate (90 mm diameter). For a large primary screen, 10–20 plates were prepared with 3×10^4 pfu per plate. After 6 hours incubation at 37° C., a nitrocellulose filter soaked in 10 mM isopropyl-β-D-thiogalactopyranoside (IPTG) was overlaid on each plate and incubated 3–6 hours at 37° C. Before the filters were removed from the plates, they were marked asymmetrically with India ink in a 18 gauge syringe needle. The plates were stored at 4° C. until ready for the secondary screen. The filters were washed with PBS (137 mM NaCl, 2.7 mM KCl, 4.3 mM Na2HPO4, 1.4 mM KH2PO4)-0.05% Triton X-100 three times at room temperature, 15 minutes each wash, and then placed in a plastic bag containing non-specific blocking solution (PBS-2% BSA) for one hour. In the meantime, 1 ml of 1 mM biotinylated peptide in PBS-0.1% Tween 20 was added to 20 ml of 1 mg/ml streptavidin-alkaline phosphatase (SA-AP) in PBS-0.1% Tween 20 and incubated at 4° C. for 30 minutes. […] Excess biotin-binding sites would then be blocked by addition of 500 pmol biotin. […] Ten μl of 0.1 mM biotin would then be added, and the solution incubated for an additional 15 min.
(§2) To determine the ligand preferences of the novel WW omain-containing clones described in Sections 6.1 and 6.1.1, as well as addressing the issue of whether peptides containing PPPPY (SEQ ID NO:3)-like motifs derived from a variety of proteins could also serve as recognition units and bind to these clones, a cross affinity mapping experiment was performed (FIGS. 15A–D). The peptides shown in FIGS. 15A–D were synthesized, biotinylated, complexed with streptavidin-alkaline phosphatase, and tested in an ELISA based assay for their ability to bind to the twelve individual novel WW domains of WWP1, WWP2, WWP3 and WWP4 which were expressed as GST fusion proteins. The ELISA based cross-affinity experiments were performed essentially as described by Sparks et al. (1996, Proc. Natl. Acad. Sci. 93:1540–1544) with the following modifications. Briefly, microtiter wells were coated with 1–5 μg of fusion protein in 100 mM NaHCO3, blocked with SuperBlock TBS (Pierce) and washed four times with PBS, 0.05% Tween 20. Specific peptide-streptavidin/alkaline phosphatase complexes were added as above and unbound complexes washed five times with PBS, 0.05% Tween 20. Following addition of PNP substrate (p-nitrophenyl phosphate, Kirkegard & Perry Labs), peptide binding was quantitated after 30 min. at O.D. 405 nm. Relative binding measurements from three independent determinations were assigned to a scale as follows: O.D. units 0–0.5=(−), 0.5–1.0=(+), 1.0–2.0=(++), 2.0–3.0=(+++), >3.0=(++++). Peptide binding to human Fyn and Lyn SH3 and SH2 domains was assessed by a filter binding assay (see Section 6.1 and Sparks et al., 1996, Proc. Natl. Acad. Sci 93:1540–1544). Peptide sequences used in cross-affinity experiments correspond to segments of the following genes: RasGap (Database accession # P20936), AP-2 (P05549), p53BP-2 (U09582), IL-6Rα (P22272), voltage-gated chloride channel CLCN5 (X91906), IL-2Rγ (D111086), RSV (D10652), HTLV-1 (D13784), β-dystroglycan (L19711), Formin (X53599), amiloride-sensitive epithelial Na^+ channel ENaCα (P37089), ENaCβ (X87159) and ENaCγ (X87160), muscarinic acetylcholine receptor M4 AChR (P08173), and c-Abl (P00522). Src and Crk SH3 binding peptide sequences were derived from a phage display random peptide library screen (Section 6.1 and Sparks et al., 1996, Proc. Natl. Acad. Sci. 93:1540–1544).

[2] = test system: WW domains of WWP4 expressed as GST fusion proteins; experiment: ELISA based cross affinity mapping, WW domains of WWP4; assay type: binding, human; conditions: biotinylated peptide-streptavidin/alkaline phosphatase complex; GST fusion proteins; ELISA
Experimental: as §1, §2

[3] = test system: WW domains of WWP2 expressed as GST fusion proteins; experiment: ELISA based cross affinity mapping, WW domains of WWP2; assay type: binding, human; conditions: biotinylated peptide-streptavidin/alkaline phosphatase complex; GST fusion proteins; ELISA
Experimental: as §1, §2

[4] = test system: WW domains of WWP1 expressed as GST fusion proteins; experiment: ELISA based cross affinity mapping, WW domains of WWP1; assay type: binding, human; conditions: biotinylated peptide-streptavidin/alkaline phosphatase complex; GST fusion proteins; ELISA
Experimental: as §1, §2

[5] = target: T1, WWP3 WW domain expressed as GST fusion protein (Homo sapiens, UniProt Q96QZ7); experiment: ELISA based cross affinity mapping, WWP3 WW domain; assay type: binding; conditions: biotinylated peptide-streptavidin/alkaline phosphatase complex
T1 construct: made in house
T1 sequence (Q96QZ7 300-337 limits assumed): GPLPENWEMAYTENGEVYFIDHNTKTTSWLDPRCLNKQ
Experimental: The 16 day mouse embryo cDNA expression library was diluted 1:1000 in SM solution (100 mM NaCl, 8 mM MgSOv4, 50 mM Tris HCl pH 7.5, 0.01% gelatin). To a sterile test tube, 2 μl of diluted mouse embryo library, 100 μl of 10 mM CaCl2, 100 μl of 10 mM MgCl2 and 100 μl of BL21(DE3)pLysE bacterial cells (grown overnight) were added and incubated for 30 minutes at 37° C. The contents of the tube were mixed with 3 ml of 0.6% top agarose, containing […] chloramphenicol, and poured onto a 2xYT plate (90 mm diameter). For a large primary screen, 10–20 plates were prepared with 3×10^4 pfu per plate. After 6 hours incubation at 37° C., a nitrocellulose filter soaked in 10 mM isopropyl-β-D-thiogalactopyranoside (IPTG) was overlaid on each plate and incubated 3–6 hours at 37° C. Before the filters were removed from the plates, they were marked asymmetrically with India ink in a 18 gauge syringe needle. The plates were stored at 4° C. until ready for the secondary screen. The filters were washed with PBS (137 mM NaCl, 2.7 mM KCl, 4.3 mM Na2HPO4, 1.4 mM KH2PO4)-0.05% Triton X-100 three times at room temperature, 15 minutes each wash, and then placed in a plastic bag containing non-specific blocking solution (PBS-2% BSA) for one hour. In the meantime, 1 ml of 1 mM biotinylated peptide in PBS-0.1% Tween 20 was added to 20 ml of 1 mg/ml streptavidin-alkaline phosphatase (SA-AP) in PBS-0.1% Tween 20 and incubated at 4° C. for 30 minutes. As an alternative method of forming multivalent complexes, 50 pmol biotinylated peptide could have been incubated with 2 μg SA-AP (for a biotin:biotin-binding site ratio of 1:1). Excess biotin-binding sites would then be blocked by addition of 500 pmol biotin. As a further alternative, 31.2 μl of 1 mg/ml SA-AP could have been incubated with 15 μl of 0.1 mM biotinylated peptide for 30 min at 4° C. Ten μl of 0.1 mM biotin would then be added, and the solution incubated for an additional 15 min.
as §2, with “Peptide sequences used in cross-affinity experiments correspond to segments of the following genes: RasGap (Database accession # P20936), AP-2 (P05549), p53BP-2 (U09582), IL-6Rα (P22272), voltage-gated chloride channel CLCN5 (X91906), IL-2Rγ (D111086), RSV (D10652), HTLV-1 (D13784), β-dystroglycan (L19711), Formin (X53599), amiloride-sensitive epithelial Na^+ channel ENaCα (P37089), ENaCβ (X87159) and ENaCγ (X87160), muscarinic acetylcholine receptor M4 AChR (P08173), and c-Abl (P00522). Src and Crk SH3 binding peptide sequences were derived from a phage display random peptide library screen (Section 6.1 and Sparks et al., 1996, Proc. Natl. Acad. Sci. 93:1540–1544).” left out

binding to WW domains of WWP4 [2] | binding to WW domains of WWP2 [3] | binding to WW domains of WWP1 [4] | Substance | binding to the novel WW domains (WWP1, WWP2, WWP3, WWP4 panel) [1] | binding to WWP3 WW domain [5]
– | – | – | RasGap: peptide with PPPPY-like motif from a segment of RasGap (P20936) (PLPPPPYLPP) | bound to WW domains from one or more of the four novel clones | –
– | – | – | β-dystroglycan-1: peptide from dystrophin interacting molecule β-dystroglycan (L19711) (PLPPPEYPNQ) | bound to WW domains from one or more of the four novel clones | –
– | – | – | β dystroglycan-2: second peptide from dystrophin interacting molecule β-dystroglycan (YRSPPPYVPP) | bound to WW domains from one or more of the four novel clones | –
do not bind | do not bind | do not bind | ENaCβ-Y618H: mutant ENaCβ peptide, Liddle syndrome missense substitution, PPPNY to PPPNH (PGTPPPNHDSLRL) | – | –
is not | is not | – | WBP-2A-Pro3: WBP-2A peptide with substitution of the second proline (SGSGYVQPPAPPYPGPM) | – | –
abolished binding activity | abolished binding activity | abolished binding activity | bWW060: alanine substitution variant of the tyrosine residue of the PPPPY-like domain of WWP4 (NRLDLPPAETFED) | – | –
– | – | – | p53BP-2: peptide with PPPPY-like motif from p53 binding protein-2 (U09582) (YPPYPPPPYPSG) | bound to WW domains from one or more of the four novel clones | –
– | – | – | IL-2R: peptide from interleukin receptor IL-2R (YWAPPCYTLK) | bound to WW domains from one or more of the four novel clones | –
absolutely essential for binding | absolutely essential for binding | absolutely essential for binding | WBP-2A-Pro4: WBP-2A peptide with substitution of the third proline residue (SGSGYVQPPPAPYPGPM) | – | absolutely essential for binding
abolished binding activity | abolished binding activity | abolished binding activity | bWW062: alanine substitution variant of the tyrosine residue of the PPPPY-like domain of WWP2 (NRLDLPPAKSYEQ) | – | –
do not bind | do not bind | do not bind | ENaCβ-P616L: mutant ENaCβ peptide, Liddle syndrome missense substitution, PPPNY to PPLNY (PGTPPLNYDSLRL) | – | –
– | – | – | AP-2: peptide with PPPPY-like motif from AP-2 transcription factor (P05549) (PYFPPPYQPI) | bound to WW domains from one or more of the four novel clones | –
– | – | – | IL-6R: peptide from interleukin receptor IL-6R (TTSPPPPPYS) | bound to WW domains from one or more of the four novel clones | –

Substance | binding to WW domains of WWP4 [2] | binding to WW domains of WWP2 [3] | binding to WW domains of WWP1 [4] | binding to the novel WW domains (WWP1, WWP2, WWP3, WWP4 panel) [1] | binding to WWP3 WW domain [5]
biotin - PGTPPPNYDSLRL [ENaCβ] | positive interaction | positive interaction | positive interaction | – | positive interaction
biotin - PGTPPPKYNTLRL [ENaCγ] | positive interaction | positive interaction | positive interaction | – | positive interaction
